Data on 23 compounds can be found in US5574062A, “Coumarin derivative and use thereof” (Morinaga Milk Industry Co., Ltd., priority 1993, dated 1996).

pIC50: −log10 of the molar value. “And” between values parts separate entries of the source, which are not always exact repeats. Equal entries are not always repeated. Where two headings read alike, the source gives them in different places.

One test concerns the target T1, 12-lipoxygenase (Rattus norvegicus, UniProt F1LQ70).
T1 construct: The platelets were then sonicated at 4° C. and centrifuged at 100,000×g for 30 minutes to obtain a supernatant as a 12-lipoxygenase enzyme solution; from tissue; host or cells: Sprague Dawley rat platelets (from aortic blood), sonicated, 100,000 x g supernatant
T1 sequence (F1LQ70 1-663): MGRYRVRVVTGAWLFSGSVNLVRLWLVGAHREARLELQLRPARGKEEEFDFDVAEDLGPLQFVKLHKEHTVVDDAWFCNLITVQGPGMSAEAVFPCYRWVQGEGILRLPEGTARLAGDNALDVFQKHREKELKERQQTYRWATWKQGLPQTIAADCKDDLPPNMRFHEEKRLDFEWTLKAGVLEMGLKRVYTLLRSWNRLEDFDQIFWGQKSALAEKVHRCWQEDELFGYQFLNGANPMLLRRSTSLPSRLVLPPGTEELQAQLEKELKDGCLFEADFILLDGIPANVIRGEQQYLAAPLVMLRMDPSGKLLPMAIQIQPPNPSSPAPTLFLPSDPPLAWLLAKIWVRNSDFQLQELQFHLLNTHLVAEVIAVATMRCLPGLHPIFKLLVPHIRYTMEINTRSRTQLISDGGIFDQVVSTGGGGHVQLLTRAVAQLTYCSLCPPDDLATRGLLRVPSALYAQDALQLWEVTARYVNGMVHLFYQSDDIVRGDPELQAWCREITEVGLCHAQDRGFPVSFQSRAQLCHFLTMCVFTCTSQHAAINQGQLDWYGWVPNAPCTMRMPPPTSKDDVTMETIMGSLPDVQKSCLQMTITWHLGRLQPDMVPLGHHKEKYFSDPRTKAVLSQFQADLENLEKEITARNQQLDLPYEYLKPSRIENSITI
Put plainly: 12-lipoxygenase inhibition assay (rat platelet supernatant, arachidonic acid, HPLC of 12-HETE). In kind it is biochemical, Sprague Dawley male rat (platelets). The note with it: for maximum inhibition ratio of 12-lipoxygenase / inhibition at 10 µM: at a compound concentration of 10^-5 M, IC50 not obtained; for maximum inhibition ratio of 12-lipoxygenase: 10 µM; for inhibition at 10 µM: read-out: maximum inhibition ratio of 12-lipoxygenase. On the procedure:
A Sprague Dawley male rat was anesthetized with ether and bled from abdominal aorta using a syringe filled with about one-tenth volume of 3.8% sodium citrate. Blood was centrifuged at 180×g for 15 minutes at room temperature to pellet sanguineous platelet blood plasma. The resultant supernatant was again centrifuged at 1800×g for 10 minutes at 4° C. The pelleted platelets were rinsed twice with a washing buffer (50 mM Tris-hydrochloric acid buffer containing 154 mM sodium chloride and 2 mM EDTA, pH: 7.4). The platelets were then suspended in one-twentieth volume of a resuspension buffer (50 mM Tris-hydrochloric acid buffer containing 154 mM sodium chloride and 5.5 mM glucose, pH: 7.4). The platelets were then sonicated at 4° C. and centrifuged at 100,000×g for 30 minutes to obtain a supernatant as a 12-lipoxygenase enzyme solution.
The enzyme solution described above was diluted with the resuspension buffer above mentioned to prepare an assay solution so as to include about 2 mU/ml of 12-lipoxygenase. To an aliquot (300 μl) of the assay solution was added 1 μl of a 3 mM indomethacin-ethanol solution, 1 μl of an aqueous 300 mM reduced-glutathione solution, and 3 μl of varied concentrated test compounds solution in ethanol. The resultant mixture was incubated at 37° C. for 5 minutes. Subsequently, 3 μl of a 2.5 mM arachidonic acid solution in ethanol was added to incubate with for another 5 minutes at 37° C., then the reaction was ceased by the addition of 600 μl of methanol. After being centrifuged at 10,000×g for 5 minutes, 12-hydroxyeicosatetraenoic acid recovered in the supernatant was separated with a reverse phase high-performance liquid chromatography equipped with a C-18 column and measured the absorption of diene at 234 nm to quantify the activity of 12-lipoxygenase.
As test compounds were used the compounds of the present invention prepared in the same methods as in Example 4, Example 5 and Example 8 and the compounds prepared in the same methods as in Comparative Examples 1-5, and as a control was used esculetin (purchased from Tokyo Kasei), a known compound represented by the following formula: [drawing 33] and the test was conducted at varied concentrations.
The enzyme solution was prepared according to the same manner as in Test Example 1.
The inhibition assay was performed according to the same method as described in Test Example 1 except that the same samples used in measurement of the 5-lipoxygensase activity were used to estimate IC50 values. […]
They were measured in the same method as in Test Example 1.

For the next test, the target named is T2, 5-lipoxygenase (Rattus norvegicus, UniProt P12527).
T2 construct: host or cells: RBL-1 (rat basophilic leukemia cells)
T2 sequence (P12527 1-673): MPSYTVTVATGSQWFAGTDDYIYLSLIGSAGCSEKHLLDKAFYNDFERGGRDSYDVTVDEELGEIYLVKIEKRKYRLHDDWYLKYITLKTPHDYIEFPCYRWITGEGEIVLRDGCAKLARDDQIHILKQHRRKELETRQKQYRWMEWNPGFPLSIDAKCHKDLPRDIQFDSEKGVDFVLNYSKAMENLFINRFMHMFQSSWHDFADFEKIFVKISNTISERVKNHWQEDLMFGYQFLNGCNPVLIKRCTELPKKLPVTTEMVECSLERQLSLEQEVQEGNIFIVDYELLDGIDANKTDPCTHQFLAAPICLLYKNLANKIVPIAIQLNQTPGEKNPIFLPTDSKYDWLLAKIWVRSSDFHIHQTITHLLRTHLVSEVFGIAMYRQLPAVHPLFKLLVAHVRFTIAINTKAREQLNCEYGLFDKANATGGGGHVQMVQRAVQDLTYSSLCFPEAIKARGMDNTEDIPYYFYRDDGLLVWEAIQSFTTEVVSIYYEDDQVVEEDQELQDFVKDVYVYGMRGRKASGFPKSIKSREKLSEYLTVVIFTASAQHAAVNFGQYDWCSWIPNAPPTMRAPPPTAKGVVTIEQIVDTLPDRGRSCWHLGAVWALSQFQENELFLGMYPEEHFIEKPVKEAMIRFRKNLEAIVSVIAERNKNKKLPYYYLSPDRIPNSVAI
The test is described as follows: 5-lipoxygenase inhibition assay (RBL-1 supernatant, arachidonic acid, HPLC of 5-HETE). In kind it is biochemical, rat (basophilic leukemia cells RBL-1, ATCC CRL1378). On the procedure:
Rat basophilic leukemia cells (RBL-1, ATCC CRL1378) were cultured in Dulbecco modified Eagle's medium containing 10% new-born bovine serum.
Cultured cells were collected and washed twice with a 50 mM Tris-buffered saline (containing 154 mM sodium chloride, pH: 7.4, hereinafter described as TBS). The cell suspension (4×10^7 cells/ml) was then sonicated and centrifuged at 10,000×g for 10 minutes.
The resultant supernatant was used to prepare an assay solution.
To an aliquot (15 μl) of the enzyme solution (40 mU/ml equivalent) was added 185 μl of TBS, 50 μl of a 2 mM adenosine triphosphate in TBS, 50 μl of a 12 mM calcium chloride in TBS, 1 μl of a 3 mM indomethacin in ethanol solution, 1 μl of an aqueous 300 mM reduced glutathione solution, and 3 μl of varied concentrated test compounds solution in ethanol. The resultant mixture was incubated at 37° C. for 5 minutes. Subsequently, 3 μl of a 2.5 mM arachidonic acid solution in ethanol was added to incubate the mixture for 2 minutes at 37° C. The reaction was ceased by the addition of 600 μl of methanol. After being centrifuged at 10,000×g for 5 minutes, 5-hydroxyeicosatetraenoic acid recovered in the supernatant was separated with a reverse phase high-performance liquid chromatography equipped with a C-18 column and measured the absorption of diene at 234 nm to quantify the activity of the enzyme.
Using the compounds of the present invention prepared in the same manner as in Examples 1-30, and Examples 33-36 as test samples and known baicalein (purchased from Wako Junyaku Kogyo) represented by the following formula 30 as a control: [drawing 34] the tests were performed for dose dependent inhibition to estimate IC50 values
It was prepared in the same method as in Test Example 2.
They were measured in the same method as in Test Example 2.

[1] abbreviates: Test Example 5, Table 22, read-out: 12-Lipoxygenase inhibiting activity IC50 value.
Setting [2] is: Test Example 5, Table 22, read-out: 5-Lipoxygenase inhibiting activity IC50 value.
Setting [3] is: Test Example 1, Table 1 and text, read-out: 12-lipoxygenase IC50 value.
Where [4] appears, read: Test Example 2, Table 2, read-out: IC50 value of 12-lipoxygenase.
Setting [5] is: Test Example 2, Table 2, read-out: IC50 value of 5-lipoxygenase.
The mark [6] stands for this setting: Test Example 3, Table 11, value belongs to the deacylated compound, read-out: 12-lipoxygenase inhibiting activities of deacylated compounds (IC50 values).

Usually pIC50 stands for −log10 of the IC50, conventionally taken in molar units. For the compound `O=c1oc2c(O)c(O)ccc2cc1-c1ccc2ccccc2c1` [Example 61], the pIC50 was 7.47 on 12-lipoxygenase (setting [1]) and 6.64 on 5-lipoxygenase (setting [2]).

As to `O=c1oc2c(O)c(O)ccc2cc1-c1ccc(O)cc1` [Comp. Example 5, reference compound], the “12-lipoxygenase inhibitory activity (in words)” value at 12-lipoxygenase is recorded as “decreases greatly”. In addition, at 12-lipoxygenase (setting [3]), the pIC50 is 5.96.

Regarding `CCc1ccc(-c2cc3ccc(O)c(O)c3oc2=O)cc1` [Example 19], the pIC50 was 7.85 on 12-lipoxygenase (setting [4]) and 6.60 at 5-lipoxygenase (setting [5]).

As to `O=c1oc2cc(O)c(O)cc2cc1-c1cccc(Cl)c1` [Example 9, 3-(3-chlorophenyl)-6,7-dihydroxycoumarin], the pIC50 at 12-lipoxygenase (setting [4]) is 8.37; on 12-lipoxygenase (setting [6]) it was 8.37; at 5-lipoxygenase (setting [5]), 6.80.

Turning to `O=c1oc2cc(O)c(O)cc2cc1-c1ccc(Br)cc1` [Example 1], the pIC50 at 12-lipoxygenase (setting [4]) was 8.36; on 5-lipoxygenase (setting [5]), 6.72.

As for `O=c1oc2cc(O)c(O)cc2cc1-c1ccc(F)cc1` [Example 7], the pIC50 on 12-lipoxygenase (setting [4]) is 8.10; at 5-lipoxygenase (setting [5]) it was 6.40.

For `COc1ccc(-c2cc3ccc(O)c(O)c3oc2=O)cc1` [Example 27, 3-(4-methoxyphenyl)-7,8-dihydroxycoumarin], the pIC50 was 7.57 on 12-lipoxygenase (setting [4]) and 6.18 on 5-lipoxygenase (setting [5]).

`COc1ccc2cc(-c3ccccc3)c(=O)oc2c1OC` [Comp. Example 1, reference compound]: the “maximum inhibition ratio of 12-lipoxygenase” value at 12-lipoxygenase (listed as Comparative Example 1, 10 µM) was “less than 10%”. Further, the inhibition at 10 µM at 12-lipoxygenase came to 5%.

As for `O=c1oc2cc(O)c(O)cc2cc1-c1cccs1` [Example 15, 3-(thiophen-2-yl)-6,7-dihydroxycoumarin], the results for the pIC50 at 12-lipoxygenase (setting [4]) and on 5-lipoxygenase (setting [5]) were 7.68 and 6.48, respectively.

Consider `O=c1oc2cc(O)c(O)cc2cc1-c1ccc(I)cc1` [Example 10, 3-(4-iodophenyl)-6,7-dihydroxycoumarin], for which the pIC50 on 12-lipoxygenase (setting [4]) was 8.24; at 12-lipoxygenase (setting [6]), 8.24; on 5-lipoxygenase (setting [5]) it was 6.85.

In the case of `O=c1oc2cc(O)c(O)cc2cc1-c1ccsc1` [Example 16], the negative logarithm of the IC50 (pIC50) on 12-lipoxygenase (setting [4]) is 7.66; on 5-lipoxygenase (setting [5]), 6.38.

With `O=c1oc2cc(O)c(O)cc2cc1-c1ccc(C(F)(F)F)cc1` [Example 14, 3-(4-trifluoromethylphenyl)-6,7-dihydroxycoumarin], the pIC50 at 12-lipoxygenase (setting [4]) was 7.89; on 5-lipoxygenase (setting [5]), 6.57.

For `O=c1oc2cc(O)c(O)cc2cc1-c1ccc(Cl)cc1` [Example 8, 3-(4-chlorophenyl)-6,7-dihydroxycoumarin], the pIC50 was 8.15 and ~9.00 on 12-lipoxygenase (setting [3]); 8.15 on 12-lipoxygenase (setting [4]); 8.15 at 12-lipoxygenase (setting [6]); 6.59 at 5-lipoxygenase (setting [5]).

As to `O=c1oc2c(O)c(O)ccc2cc1-c1cc(Br)cs1` [Example 33, 3-(4-bromothiophen-2-yl)-7,8-dihydroxycoumarin], the pIC50 at 12-lipoxygenase (setting [4]) is 7.92; on 5-lipoxygenase (setting [5]) it was 6.44.

Consider `O=c1oc2c(O)c(O)ccc2c(-c2ccccc2)c1-c1ccccc1` [Comp. Example 4, reference compound], for which the pIC50 at 12-lipoxygenase (setting [3]) was 6.92.

On to `O=c1oc2c(O)c(O)ccc2cc1-c1cccc(Cl)c1` [Example 22, 3-(3-chlorophenyl)-7,8-dihydroxycoumarin], for which the pIC50 on 12-lipoxygenase (setting [4]) is 8.02; on 12-lipoxygenase (setting [6]) it was 8.02; at 5-lipoxygenase (setting [5]) it was 6.57.

In the case of `O=c1oc2c(O)c(O)ccc2cc1-c1ccc(Br)cc1` [Example 25, 3-(4-bromophenyl)-7,8-dihydroxycoumarin], the pIC50 was 7.89 at 12-lipoxygenase (setting [4]) and 6.38 on 5-lipoxygenase (setting [5]).

Take `Cc1cccc(-c2cc3cc(O)c(O)cc3oc2=O)c1` [Example 12]: the pIC50 was 7.96 on 12-lipoxygenase (setting [4]) and 6.55 at 5-lipoxygenase (setting [5]).

As for `O=c1oc2cc(O)c(O)cc2cc1-c1ccc2ccccc2c1` [Example 62], the pIC50 was 8.34 on 12-lipoxygenase (setting [1]) and 7.19 at 5-lipoxygenase (setting [2]).

On to `O=c1oc2c(O)c(O)ccc2cc1-c1ccc(Cl)cc1` [Example 4, 3-(4-chlorophenyl)-7,8-dihydroxycoumarin], for which the pIC50 at 12-lipoxygenase (setting [3]) was 8.12 and ~9.00; at 12-lipoxygenase (setting [4]), 8.12; at 12-lipoxygenase (setting [6]) it was 8.12; on 5-lipoxygenase (setting [5]), 6.32.

As to `Cc1ccc(-c2cc3ccc(O)c(O)c3oc2=O)o1` [Example 35], the pIC50 on 12-lipoxygenase (setting [4]) is 7.82; on 5-lipoxygenase (setting [5]), 6.47.

Regarding `O=c1oc2cc(O)ccc2cc1-c1ccc(Cl)cc1` [Comp. Example 2, reference compound], at 12-lipoxygenase (listed as Comparative Example 2, 10 µM), the “maximum inhibition ratio of 12-lipoxygenase” value is given as “less than 10%”. Also, the inhibition at 10 µM on 12-lipoxygenase was determined as 7%.

Consider `O=c1oc2cc(O)c(O)cc2cc1-c1csc2ccccc12` [Example 64], for which the pIC50 at 12-lipoxygenase (setting [1]) was 8.00; at 5-lipoxygenase (setting [2]), 6.74.
